Measurements published in US7462600B2, “Macrolides” (Pfizer Inc, priority 2004, dated 2008).
≈ marks a conversion by molar mass, not a printed value. Like-named read-outs stand apart in the source and are kept apart here.

What was measured:
Assay type in all cases: cell-based
[1] = test system: Streptococcus pneumoniae 1095; conditions: microtiter broth dilution
Method in brief: (§1)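 MIC read-out follows NCCLS M100-S14 interpretation of microtiter tray broth dilution. Test agents are prepared as DMSO stocks at 40 mg/ml.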

[2] = test system: Streptococcus pneumoniae 1175; conditions: microtiter broth dilution
Method in brief: as §1

[3] = test system: Haemophilus influenzae 1218; assay: MIC, microtiter broth dilution (NCCLS M100-S14), H. influenzae 1218 (susceptible)
Method in brief: as §1

[4] = test system: Streptococcus pneumoniae 1016; assay: MIC, microtiter broth dilution (NCCLS M100-S14), S. pneumoniae 1016 (susceptible)
Method in brief: as §1

[5] = test system: Streptococcus pyogenes 1079; assay: MIC, microtiter broth dilution (NCCLS M100-S14), S. pyogenes 1079 (ermB)
Method in brief: as §1

[6] = H. influenzae 1218 (susceptible)
[7] = S. pneumoniae 1016 (susceptible)

SMILES | MIC S. pneumo. 1095 ([1]; Streptococcus pneumoniae 1095) [µg/mL] | MIC S. pneumo. 1175 ([2]; Streptococcus pneumoniae 1175) [µg/mL] | MIC H. influenzae 1218 ([3]; Haemophilus influenzae 1218) [µg/mL] | MIC S. pneumo. 1016 ([4]; Streptococcus pneumoniae 1016) [µg/mL] | MIC S. pyogenes 1079 ([5]; Streptococcus pyogenes 1079) [µg/mL] | MIC S. pneumo. 1095 ([1]; S. pneumoniae 1095 (ermB)) [µg/mL] | MIC S. pneumo. 1175 ([2]; S. pneumoniae 1175 (mefA)) [µg/mL] | MIC H. influenzae 1218 [3, 6] [µg/mL] | MIC S. pneumo. 1016 [4, 7] [µg/mL] | MIC S. pyogenes 1079 ([5]; S. pyogenes 1079 (ermB)) [µg/mL]
CC[C@H]1OC(=O)[C@H](C)[C@@H](OC(=O)N2CCCC2c2cccc(F)c2)[C@H](C)[C@@H](O[C@@H]2O[C@H](C)C[C@H](N(C)C)[C@H]2O)[C@](C)(OC)C[C@@H](C)C(=O)[C@H](C)[C@H]2N(CC3CN(Cc4c[nH]c5ncccc45)C3)C(=O)O[C@]12C (some centres unmarked) [Example 5.05, 3-descladinosyl-11,12-dideoxy-6-O-methyl-12,11-(oxycarbonyl-(1-((1H-pyrrolo[2,3-b]pyridin-3-yl)-methyl)-(azetidin-3-yl)-methyl)-imino)-3-((2-(3-fluorophenyl)-pyrrolidine)-1-carbonyl)-erythromycin A] | 2 (≈ 1.99 µM) | 0.5 (≈ 0.497 µM) | 8 (≈ 7.96 µM) | <0.06 | 4 (≈ 3.98 µM) |  |  |  |  | 
CC[C@H]1OC(=O)[C@H](C)[C@@H](OC(=O)N2CCCC2c2cccc(F)c2)[C@H](C)[C@@H](O[C@@H]2O[C@H](C)C[C@H](N(C)C)[C@H]2O)[C@](C)(OC)C[C@@H](C)C(=O)[C@H](C)[C@H]2N(CC3CN(Cc4c[nH]c5ncccc45)C3)C(=O)O[C@]12C (some centres unmarked) [Example 5.06, 3-descladinosyl-11,12-dideoxy-4-O-methyl-12,11-(oxycarbonyl-(1-((1H-pyrrolo[2,3-b]pyridin-3-yl)-methyl)-(azetidin-3-yl)-methyl)-imino)-3-((2-(3-fluorophenyl)-pyrrolidine)-1-carbonyl)-erythromycin A] | <0.06 | <0.06 | 2 (≈ 1.99 µM) | <0.06 | 0.25 (≈ 0.249 µM) |  |  |  |  | 
CC[C@H]1OC(=O)[C@H](C)[C@@H](OC(=O)N2CCCC2)[C@H](C)[C@@H](O[C@@H]2O[C@H](C)C[C@H](N(C)C)[C@H]2O)[C@](C)(OC)C[C@@H](C)C(=O)[C@H](C)[C@H]2N(CC3CN(C(=O)c4cccc5cccnc45)C3)C(=O)O[C@]12C [Example 5.07, 2-R^2: quinoline-8-carboxyl; R^#: pyrrolidin-1-yl] | 0.25 (≈ 0.267 µM) | <0.06 | 4 (≈ 4.27 µM) | <0.06 | 16 (≈ 17.1 µM) |  |  |  |  | 
CC[C@H]1OC(=O)[C@H](C)[C@@H](OC(=O)N2CCCC2)[C@H](C)[C@@H](O[C@@H]2O[C@H](C)C[C@H](N(C)C)[C@H]2O)[C@](C)(OC)C[C@@H](C)C(=O)[C@H](C)[C@H]2N(CC3CN(Cc4cccc5cccnc45)C3)C(=O)O[C@]12C [Example 5.08, 2-R^2: (quinolin-8-yl)methyl; R^#: pyrrolidin-1-yl] | 0.25 (≈ 0.271 µM) | <0.06 | 2 (≈ 2.17 µM) | <0.06 | 16 (≈ 17.4 µM) |  |  |  |  | 
CC[C@H]1OC(=O)[C@H](C)[C@@H](OC(=O)N2CCCC2)[C@H](C)[C@@H](O[C@@H]2O[C@H](C)C[C@H](N(C)C)[C@H]2O)[C@](C)(OC)C[C@@H](C)C(=O)[C@H](C)[C@H]2N(CC3CN(Cc4nccc5ccccc45)C3)C(=O)O[C@]12C [Example 5.09, 2-R^2: (isoquinolin-1-yl)methyl; R^#: pyrrolidin-1-yl] | 1 (≈ 1.08 µM) | <0.06 | 2 (≈ 2.17 µM) | <0.06 | 64 (≈ 69.4 µM) |  |  |  |  | 
CC[C@H]1OC(=O)[C@H](C)[C@@H](OC(=O)N2CCCC2)[C@H](C)[C@@H](O[C@@H]2O[C@H](C)C[C@H](N(C)C)[C@H]2O)[C@](C)(OC)C[C@@H](C)C(=O)[C@H](C)[C@H]2N(CC3CN(Cc4c[nH]c5ncccc45)C3)C(=O)O[C@]12C [Example 5.10, 3-descladinosyl-11,12-dideoxy-6-O-methyl-12,11-(oxycarbonyl-(1-((1H-pyrrolo[2,3-b]pyridin-3-yl)-methyl)-(azetidin-3-yl)-methyl)-imino)-3-(pyrrolidine-1-carbonyl)-erythromycin A] | <0.06 | <0.06 | 1 (≈ 1.1 µM) | <0.06 | 2 (≈ 2.2 µM) |  |  |  |  | 
CC[C@H]1OC(=O)[C@H](C)[C@@H](OC(=O)N2CCCC2)[C@H](C)[C@@H](O[C@@H]2O[C@H](C)C[C@H](N(C)C)[C@H]2O)[C@](C)(OC)C[C@@H](C)C(=O)[C@H](C)[C@H]2N(CC3CN(Cc4nc5ccccc5[nH]4)C3)C(=O)O[C@]12C [Example 5.11, 2-R^2: (1H-benzo[d]imidazol-2-yl)methyl; R^#: pyrrolidin-1-yl] | 1 (≈ 1.1 µM) | <0.06 | 1 (≈ 1.1 µM) | <0.06 | 32 (≈ 35.1 µM) |  |  |  |  | 
CC[C@H]1OC(=O)[C@H](C)[C@@H](OC(=O)N2CCCC2)[C@H](C)[C@@H](O[C@@H]2O[C@H](C)C[C@H](N(C)C)[C@H]2O)[C@](C)(OC)C[C@@H](C)C(=O)[C@H](C)[C@H]2N(CC3CN(Cc4nc5ccccc5s4)C3)C(=O)O[C@]12C [Example 5.14, 2-R^2: (benzo[d]thiazol-2-yl)methyl; R^#: pyrrolidin-1-yl] | 4 (≈ 4.31 µM) | <0.06 | 4 (≈ 4.31 µM) | <0.06 | 32 (≈ 34.5 µM) |  |  |  |  | 
CC[C@H]1OC(=O)[C@H](C)C(=O)[C@H](C)[C@@H](O[C@@H]2O[C@H](C)C[C@H](N(C)C)[C@H]2O)[C@](C)(OC)C[C@@H](C)C(=O)[C@H](C)[C@H]2N(C3CCN(Cc4cccc5[nH]cnc45)C3)C(=O)O[C@]12C.O=CO (some centres unmarked) [Example 8.01, (1H-benzo[d]imidazo-4-yl)methyl] |  |  |  |  |  | >64.00 | 0.25 | 8 | <0.06 | >64.00
CCC1OC(=O)C(C)C(=O)C(C)C(OC2OC(C)CC(N(C)C)C2O)C(C)(OC)CC(C)C(=O)C(C)C2N(C3CCN(Cc4cccc5ncccc45)C3)C(=O)OC12C [Example 9.02, 3-descladinosyl-11,12-dideoxy-6-O-methyl-3-oxo-12,11-(oxycarbonyl-(1-((quinolin-5-yl)-methyl)-(R)-pyrrolidin-3-yl)-imino)-erythromycin A] |  |  |  |  |  | <0.06 | 0.12 (≈ 0.146 µM) | 0.5 (≈ 0.608 µM) | <0.06 | 8 (≈ 9.72 µM)
CCC1OC(=O)C(C)C(=O)C(C)C(OC2OC(C)CC(N(C)C)C2O)C(C)(OC)CC(C)C(=O)C(C)C2N(C3CCN(Cc4c[nH]c5ncccc45)C3)C(=O)OC12C [Example 9.03, 3-descladinosyl-11,12-dideoxy-6-O-methyl-3-oxo-12,11-(oxycarbonyl-(1-((1H-pyrrolo[2,3-b]pyridin-3-yl)-methyl)-(R)-pyrrolidin-3-yl)-imino)-erythromycin A] |  |  |  |  |  | <0.06 | 0.5 (≈ 0.616 µM) | 0.12 (≈ 0.148 µM) | <0.06 | 1 (≈ 1.23 µM)
CCC1OC(=O)C(C)C(=O)C(C)C(OC2OC(C)CC(N(C)C)C2O)C(C)(OC)CC(C)C(=O)C(C)C2N(C3CCN(Cc4cnc5ccccc5c4)C3)C(=O)OC12C (centres unmarked) [Example 9.04, (quinolin-3-yl)methyl] |  |  |  |  |  | <0.06 | <0.06 | 0.5 (≈ 0.608 µM) | <0.06 | 32 (≈ 38.9 µM)
CCC1OC(=O)C(C)C(=O)C(C)C(OC2OC(C)CC(N(C)C)C2O)C(C)(OC)CC(C)C(=O)C(C)C2N(C3CCN(Cc4ccnc5ncccc45)C3)C(=O)OC12C [Example 9.05, 3-descladinosyl-11,12-dideoxy-6-O-methyl-3-oxo-12,11-(oxycarbonyl-(1-((1,8-naphthyridin-4-yl)-methyl)-(R)-pyrrolidin-3-yl)-imino)erythromycin A] |  |  |  |  |  | 0.5 (≈ 0.607 µM) | 0.5 (≈ 0.607 µM) | 8 (≈ 9.71 µM) | <0.06 | 8 (≈ 9.71 µM)
CCC1OC(=O)C(C)C(=O)C(C)C(OC2OC(C)CC(N(C)C)C2O)C(C)(OC)CC(C)C(=O)C(C)C2N(C3CCN(Cc4cccc5cnccc45)C3)C(=O)OC12C [Example 9.07, 3-descladinosyl-11,12-dideoxy-6-O-methyl-3-oxo-12,11-(oxycarbonyl-(1-((isoquinolin-5-yl)-methyl)-(R)-pyrrolidin-3-yl)-imino)erythromycin A] |  |  |  |  |  | <0.06 | 0.12 (≈ 0.146 µM) | 1 (≈ 1.22 µM) | <0.06 | 2 (≈ 2.43 µM)
CCC1OC(=O)C(C)C(=O)C(C)C(OC2OC(C)CC(N(C)C)C2O)C(C)(OC)CC(C)C(=O)C(C)C2N(C3CCN(S(=O)(=O)c4cccc5cnccc45)C3)C(=O)OC12C (centres unmarked) [Example 9.08, isoquinoline-5-sulfonyl] |  |  |  |  |  | 4 (≈ 4.58 µM) | 0.12 (≈ 0.137 µM) | 0.25 (≈ 0.286 µM) | <0.06 | 16 (≈ 18.3 µM)
CCC1OC(=O)C(C)C(=O)C(C)C(OC2OC(C)CC(N(C)C)C2O)C(C)(OC)CC(C)C(=O)C(C)C2N(C3CCN(Cc4n[nH]c5ccccc45)C3)C(=O)OC12C [Example 9.09, 3-descladinosyl-11,12-dideoxy-6-O-methyl-3-oxo-12,11-(oxycarbonyl-(1-((1H-indazol-3-yl)-methyl)-(R)-pyrrolidin-3-yl)-imino)-erythromycin A] |  |  |  |  |  | 0.25 (≈ 0.308 µM) | 0.12 (≈ 0.148 µM) | 0.12 (≈ 0.148 µM) | <0.06 | 2 (≈ 2.46 µM)
